In assay [1] the test system is rat model of infrarenal abdominal aorta-vena cava fistula (AV fistula). As to the kind of experiment: AV fistula model: mean arterial blood pressure. The format is in vivo, Sprague Dawley rats. The following applies: for % change in meal arterial pressure / Mean arterial pressure: PO; for % change in meal arterial pressure: 7 days, against vehicle control; for Mean arterial pressure: after 7 days of treatment, AV fistula rats; for reduction of mean arterial blood pressure: after treatment period, in comparison to vehicle control, given as reduction. The text has this:
(§1) Sprague Dawley rats will be used in the study at the age to 6-8 weeks. A midline abdominal incision will be made under anesthesia to expose the vena cava and abdominal aorta distal to the origin of the renal arteries. A longitudinal incision will be performed in the outer wall of the vena cava. The common wall between the aorta and vena cava will be grabbed through the incision and a fistula (1.0-1.2 mm outer diameter) will be created between the vena cava and aorta. The opening of the outer wall of the vena cava will be closed with a continuous suture. After the surgical procedure, the animals will be allowed to recover with daily monitoring of urine output and sodium excretion in metabolic cages. A matched group of sham-operated rats will serve as controls. After a week of surgical operation, rats will be divided into subgroups according to their daily absolute rate of sodium excretion. Fimasartan or its pharmaceutically acceptable salt, or Sacubitril or its pharmaceutically acceptable salt or their combination will be taken as a low dose, middle dose, and high dose group. Animals will be treated daily for four weeks with weekly measurement of blood pressure. Additionally, sodium excretion and creatinine clearance will be measured twice weekly. In the rat model of infrarenal abdominal aorta-vena cava fistula (AV fistula), workload on heart increases by sustained volume overload, this reduces sodium excretion and leads to cardiac hypertrophy. Rats receiving fimasartan (5, 10 and 30 mg/kg/day), sacubitril (25, 50 and 75 mg/kg/day) and combination (fimasartan 10 mg/kg and sacubitril 50 mg/kg) were evaluated in AV fistula model. Sprague Dawley rats in these experimental groups were treated daily by gavage for seven days and urine volume and sodium excretion were daily measured. Rats treated with vehicle served as controls. Rats with sham operation or animals with arterio-venous fistula treated with vehicle served as controls. Animals were randomized based on 24 h urinary sodium excretion. Animals with <100 μEq/24 h urinary sodium excretion were selected in study except sham control animals. Treatment was initiated for 7 days with daily measurement of sodium excretion and results were expressed as cumulative urinary sodium excretion. […] These observations indicate that combination of fimasartan and sacubitril reduce volume overload associated with AV Fistula. After completion of the treatment period, mean arterial blood pressure was evaluated from animals from different experimental groups.

The test system of assay [2] is five sixth nephrectomized rats. As to the kind of experiment: Subtotal nephrectomy induced hypertension: blood pressure. The format is in vivo, Sprague Dawley rats. The following applies: four weeks. Here is the method: Fimasartan 10 mg/kg and Sacubitril 50 mg/kg and combination were administered for 4 weeks. Prior to initiation, Sprague Dawley rats were randomized based on their systolic blood pressure after one week of recovery. These experimental groups were treated daily by gavage for four weeks and their weekly blood pressure was measured. Rats treated with vehicle served as controls and sham operated animals treated with vehicle served as sham controls. […] Experimental model of acute cardiac failure is characterized by several features that closely mimic the pathophysiological consequences of CHF in patients, includes the characteristic neurohumoral activation, decrease in renal perfusion, sodium retention and cardiac hypertrophy (J Biomed Biotechnol. 2011; 2011: 729497). […] Five sixth nephrectomy represent a model of hypertension in rats and in clinic it has been observed that loss of renal mass is associated with increased hypertension (APMIS. 1992 December; 100(12):1097-105; International Journal of Urology (2015) 22, 797-804).

In assay [3] the test system is rat model of infrarenal abdominal aorta-vena cava fistula (AV fistula). As to the kind of experiment: AV fistula model: cumulative urinary sodium excretion. Type of assay: in vivo, Sprague Dawley rats. The following applies: PO; for Urinary sodium (cumulative sodium excretion): 7 days of treatment, AV fistula rats; for % change in urinary sodium: 7 days, against vehicle control.
Description: as §1, with “Rats receiving fimasartan (5, 10 and 30 mg/kg/day), sacubitril (25, 50 and 75 mg/kg/day) and combination (fimasartan 10 mg/kg and sacubitril 50 mg/kg) were evaluated in AV fistula model.” left out

The target in a further assay is NEP (Homo sapiens, UniProt P08473). The following applies: in vivo; cited from earlier work.

The structures appear in SMILES notation. Values joined by “and” are separate entries in the source; they are usually repeats but may differ in a detail not shown here. Equal values may be shown once.

Chain of NEP (P08473 whole entry): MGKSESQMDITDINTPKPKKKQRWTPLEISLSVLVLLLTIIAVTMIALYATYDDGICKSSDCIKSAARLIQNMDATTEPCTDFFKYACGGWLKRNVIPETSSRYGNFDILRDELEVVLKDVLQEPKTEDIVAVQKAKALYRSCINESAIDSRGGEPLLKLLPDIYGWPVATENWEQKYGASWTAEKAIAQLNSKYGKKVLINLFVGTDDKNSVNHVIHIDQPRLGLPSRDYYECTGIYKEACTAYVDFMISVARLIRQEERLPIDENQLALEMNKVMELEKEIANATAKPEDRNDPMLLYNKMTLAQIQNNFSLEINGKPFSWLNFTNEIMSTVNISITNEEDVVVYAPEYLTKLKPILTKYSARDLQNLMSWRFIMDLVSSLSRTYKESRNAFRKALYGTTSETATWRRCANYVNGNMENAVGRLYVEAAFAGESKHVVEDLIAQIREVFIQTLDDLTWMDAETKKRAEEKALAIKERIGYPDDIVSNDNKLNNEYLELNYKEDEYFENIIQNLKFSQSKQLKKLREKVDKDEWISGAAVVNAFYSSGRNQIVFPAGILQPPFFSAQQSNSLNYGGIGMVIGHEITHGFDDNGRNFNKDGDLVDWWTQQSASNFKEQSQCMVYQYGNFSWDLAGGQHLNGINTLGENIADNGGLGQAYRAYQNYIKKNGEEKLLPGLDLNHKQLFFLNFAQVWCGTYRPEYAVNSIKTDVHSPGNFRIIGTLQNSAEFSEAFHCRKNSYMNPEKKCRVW

In the case of `CCCCc1nc(C)c(CC(=S)N(C)C)c(=O)n1Cc1ccc(-c2ccccc2-c2nnn[nH]2)cc1` [Fimasartan, 2-n-butyl-5-dimethylaminothiocarbonyl-methyl-6-methyl-3-[[2′-(1H-tetrazol-5-yl)biphenyl-4-yl]methyl]pyrimidin-4(3H)-one], the “% change in meal arterial pressure” value in assay [1] (fimasartan 10 mg/kg) is −5.9 ± 1.9 %. For the same compound, the Mean arterial pressure in assay [1] (fimasartan 10 mg/kg) is on record as 111.7 ± 2.3 mmHg. For the same compound, the “reduction of mean arterial blood pressure” value in assay [1] (fimasartan alone (FIG. 2)) is reported as 5.9±1.9%. In assay [2] (Fimasartan 10 mg/kg daily by gavage), the “reduction in blood pressure against vehicle control” value turned out to be 15.9%. The “Urinary sodium (cumulative sodium excretion)” value in assay [3] (fimasartan 5 mg/kg) is 4784.8 ± 497.5 μeq/24 h; in assay [3] (fimasartan 10 mg/kg) it was 5179.7 ± 451.2 μeq/24 h and 5179.7 ± 443.7 μeq/24 h; in assay [3] (fimasartan 20 mg/kg), 6664.7 ± 448.2 μeq/24 h. The “% change in urinary sodium” value in assay [3] (fimasartan 5 mg/kg) was 31.1 ± 13.6 %; in assay [3] (fimasartan 5 mg/kg, listed as fimasartan), 31.1±13.6%; in assay [3] (fimasartan 10 mg/kg) it was 41.9 ± 12.2 % and 51.2 ± 11.9 %; in assay [3] (fimasartan 10 mg/kg, listed as fimasartan), 41.9±12.2%; in assay [3] (fimasartan 20 mg/kg), 82.6 ± 13.1 %; in assay [3] (fimasartan 20 mg/kg, listed as fimasartan), 82.6±13.1%.
`CCOC(=O)[C@H](C)C[C@@H](Cc1ccc(-c2ccccc2)cc1)NC(=O)CCC(=O)O` [Sacubitril, 4-[[(2S,4R)-5-ethoxy-4-methyl-5-oxo-1-(4-phenylphenyl)pentan-2-yl]amino]-4-oxobutanoic acid]: the “% change in meal arterial pressure” value in assay [1] (sacubitril 50 mg/kg) is reported as −8 ± 1.9 %. Also, the Mean arterial pressure in assay [1] (sacubitril 50 mg/kg) is recorded as 109.2 ± 2.2 mmHg. Further, the “reduction of mean arterial blood pressure” value in assay [1] (sacubitril alone (FIG. 2)) came to 8.0±1.9%. In assay [2] (Sacubitril 50 mg/kg daily by gavage), the “reduction in blood pressure against vehicle control” value turned out to be 18.7%. For the same compound, the “Urinary sodium (cumulative sodium excretion)” value in assay [3] (sacubitril 25 mg/kg) is recorded as 5185.7 ± 443.7 μeq/24 h; in assay [3] (sacubitril 50 mg/kg), 6678.7 ± 451.7 μeq/24 h; in assay [3] (sacubitril 75 mg/kg) it was 9129.7 ± 449.7 μeq/24 h. In addition, the “% change in urinary sodium” value in assay [3] (sacubitril 25 mg/kg) was determined as 41.9 ± 12.2 %; in assay [3] (sacubitril 25 mg/kg, listed as sacubitril), 41.9±12.1%; in assay [3] (sacubitril 50 mg/kg) it was 82.6 ± 13.5 %; in assay [3] (sacubitril 50 mg/kg, listed as sacubitril) it was 82.6±13.5%; in assay [3] (sacubitril 75 mg/kg), 150.1 ± 10.4 %; in assay [3] (sacubitril 75 mg/kg, listed as sacubitril), 150.1±10.4%.
For the compound `COCCOC[C@H](CC1(C(=O)N[C@H]2CC[C@@H](C(=O)O)CC2)CCCC1)C(=O)O` [candoxatrilat], the “natriuretic and cyclic GMP responses to a low-dose ANP infusion” value on NEP is recorded as “potentiates”.

Source of the values: patent US20180311241A1, “PHARMACEUTICAL SYNERGISTIC COMBINATION” (CADILA HEALTHCARE LIMITED, priority 2015, published 2018).
